US12029721B2, “Compositions comprising cannabinoids and methods of use” (Schedule 1 Therapeutics, Inc., priority 2021, dated 2024)

How the values were obtained:
Assay type in all cases: in vivo, mouse
wild-type CD1 mice [1] = assay: Y-maze assay (spatial memory); conditions: treatments 55 minutes prior to the first trial; CBD 100 mg/kg, THC 1 mg/kg, 1:1, 100:1
Experimental: The Y-maze assay was used to measure spatial memory using a 3-arm maze. The assay is divided into two trials separated by an intertrial period. During the first trial, one arm (novel arm) is closed, and mice are left to explore the two other arms for 5 min. Mice are then placed back in their home cages for the 2 min intertrial period. During the second trial, mice are able to explore all arms. A mouse with a good spatial memory will enter the previously unexplored (novel) arm more frequently than the other arms. A mouse with poor spatial memory will show no preference. The number of entries and time in the novel arm during the second trial was reported as the mean+/−SEM of all the mice at each interval (30 sec) and as the mean+/−SEM of the total time for the trial for each individual mouse.
A week after Test 2, spatial memory was assessed using Y-maze. Administration of drugs was performed 60 min prior to testing except for CGRP (positive control) which was administered 30 min prior to testing.
Animals used in this experiment were also used for light aversion (and later rotarod). […]
All treatments were administered 55 minutes prior to the first 5-minute trial, and therefore 62 minutes before the second 2-minute trial. No effect of CBD, THC and CBD:THC ratios on spatial memory was assessed by the Y-maze.

wild-type CD1 mice [2] = assay: Light/dark assay, CGRP-induced light aversion (Test 1)
Experimental: All drugs were administered by intraperitoneal (i.p.) injection. CGRP and caffeine were administered at 10 μl/g bodyweight with a 30 g×0.5 needle. CBD, THC and the diverse ratios of CBD:THC were administered at 3.3 μl/g bodyweight with a 23 g×0.5 needle. Rat α-CGRP (Sigma-Aldrich, USA) was administered at 0.1 mg/kg, caffeine (Sigma-Aldrich, USA) was administered at 100 mg/kg, and both were diluted in vehicle, Dulbecco PBS (Hyclone, GE Healthcare Life Science, USA). CBD was administered at 1 or 100 mg/kg, THC was administered at 1 mg/kg, and both were diluted in vehicle sunflower oil (Sigma-Aldrich, USA) Animals were gently held but not anesthetized during injection. Mice were allowed to recover for 30 to 60 min in their home cages before testing (see figure legend and experimental design for precisions).
(§1) The light/dark assay was used to measure the animals' aversion to bright light, which is a surrogate for photophobia. Briefly, mice are placed individually in light/dark boxes that consist in two compartments, one brightly lit and the other not lit, black and fully enclosed. Mice can move freely in between them. An infrared beam tracking system (Med Associates) monitors and quantifies the behavior. Light-aversive animals will spend more time in the dark compartment than naïve animals Data were collected using Activity Monitor version 7.06 from twelve chambers as previously described. Mice were pre-exposed to the chamber once (baseline, data not shown) to reduce exploratory drive, then tested with bright light (25,000 lux). Data were collected for 30 min and analyzed in sequential 5 min intervals. The time in light was reported as the mean+/−SEM of all the mice at each interval and as the mean+/−SEM of the average time per interval for each individual mouse.
Test 1: test the efficacy of CBD and/or THC on CGRP-induced light aversion. Drug administration was performed i.p. by ASW or AK, 60 minutes prior to testing. Thirty minutes before testing, animals were injected a second time with CGRP (0.1 mg/kg) in order to induce the migraine-like state. Only one group was administered with PBS and represents the negative control in this run. The group that received sunflower oil+CGRP represents the positive control. Those injections were also performed i.p by ASW or AK. Thirty minutes later, animals were placed in the light aversion chambers, and tested for 30 minutes.

wild-type CD1 mice [3] = assay: Rotarod assay (motor function); conditions: for time to fall from the rod, average across 3 trials on treatment day: FIG. 11, CBD 100 mg/kg, THC 1 mg/kg, 1:1, 100:1 given 60 min before, diazepam 5 mg/kg i.p. 30 min before; for latency to fall from the rod (motor function): FIG. 1A, first cohort, 3 consecutive 5 min trials, caffeine 100 mg/kg i.p. as positive control
Experimental: Locomotor function was assessed using the rotarod (see Assay description and relevant methods in Example 5). Mice are placed on a turning rod with increasing speed of rotation. Latency to fall from the rod is collected.
The rotarod assay was used to measure impaired motor function in mice. The assay is divided into three trials of 5 min each separated by 10 min of resting time. For each trial, mice are place on a stationary rod. Once the animal is in place, the rod rotation was initiated at a rate of 4 rpm per min, with increasing speed up to 60 rpm at 5 min. Each animal was trained for two days following this protocol and tested on the third day. The latency to fall from the rod was reported as the mean+/−SEM of all the mice for each trial.
A week after Y-maze, motor function was assessed using rotarod. Administration of drugs was performed 60 min prior to testing except for caffeine (positive control) which was administered 30 min prior to testing.
Animals used in this experiment were also used for light aversion and spatial memory, and were tested a third time in the rotarod assay. Briefly, two weeks after the last Y-maze run, animals were subjected to 3 consecutive days of rotarod assay. The first two days were used for habituation, then animals were divided in 6 different treatment groups: • negative control group: vehicle (sunflower oil), • positive control group: diazepam (5 mg/kg i.p.), • CBD (100 mg/kg), • THC (1 mg/kg), • 1:1 (1 mg/kg of both CBD and THC), and • 100:1 (100 mg/kg of CBD and 1 mg/kg of THC).
All treatments were administered 60 minutes prior to the third day of rotarod assay, except for diazepam which was administered 30 minutes prior to the assay.

wild-type CD1 mice [4] = assay: Light/dark assay without CGRP trigger (Test 2); conditions: FIG. 4, absence of the CGRP trigger; average per 5 minutes
Description: as §1
Test 2: test the possible effects of CBD and/or THC by themselves on light aversion. Animals were given a week to recover. Then the same groups were used for Test 2, and only the second injection was reversed. All groups received vehicle 30 minutes before testing, except for the first group that was administered with CGRP and was the positive control for this test. […]

[5] = FIG. 5A, all mice, co-administered with CGRP
[6] = FIGS. 3A-3B, all mice, drugs i.p. 60 min, CGRP 0.1 mg/kg 30 min before testing, CBD 100 mg/kg, THC 1 mg/kg

C=C(C)[C@@H]1CCC(C)=C[C@H]1c1c(O)cc(CCCCC)cc1O [CBD, cannabidiol]
spatial memory: number of entries and time spent in the novel arm during trial 2 (wild-type CD1 mice [1]): No effect
time spent resting in the dark (CGRP-induced increase) (wild-type CD1 mice [2]; [5]): neither CBD alone nor the 1:1 ratio reversed this increased resting time
time spent in the light (CGRP-induced light aversion) (wild-type CD1 mice [2]; [6]): failed to reverse the CGRP-induced decrease in time spent in the light
time to fall from the rod, average across 3 trials on treatment day (wild-type CD1 mice [3]): yielded similar results as the vehicle group

Cn1c(=O)c2c(ncn2C)n(C)c1=O [caffeine]
latency to fall from the rod (motor function) (wild-type CD1 mice [3]): didn't yield the expected results

calcitonin gene-related peptide [CGRP]
average time in the light (wild-type CD1 mice [4]): spending less time in the light than the veh+veh mice
time spent in the light (CGRP-induced light aversion) (wild-type CD1 mice [2]; FIG. 3D, male mice): inducing a strong and significant decrease of the time spent in the light compartment
time spent resting in the dark (CGRP-induced increase) (wild-type CD1 mice [2]; [5]): induces a significant increase in the time spent resting in the dark
time spent resting in the light compartment (wild-type CD1 mice [2]; FIG. 6, data as a function of time): does not increase the time spent resting in the light compartment
time spent in the light (CGRP-induced light aversion) (wild-type CD1 mice [2]; FIG. 7, experiment with 30:1, 100:1 as control ratio): induces a significant decrease in time spent in the light
time spent in the light (CGRP-induced light aversion) (wild-type CD1 mice [2]; [6]): induces a significant decrease in time spent in the light

CN1C(=O)CN=C(c2ccccc2)c2cc(Cl)ccc21 [diazepam]
latency to fall from the rod (wild-type CD1 mice [3]; FIG. 1B, rotarod trial with diazepam as positive control): produced the expected increased time to fall
time to fall from the rod, average across 3 trials on treatment day (wild-type CD1 mice [3]): showed a robust decrease in time to fall from the rod

CCCCCc1cc(O)c2c(c1)OC(C)(C)[C@@H]1CCC(C)=C[C@@H]21 [THC, tetrahydrocannabinol]
spatial memory: number of entries and time spent in the novel arm during trial 2 (wild-type CD1 mice [1]): No effect
time spent resting in the dark (CGRP-induced increase) (wild-type CD1 mice [2]; [5]): seem to attenuate the phenotype
time spent resting in the dark (CGRP-induced increase) (wild-type CD1 mice [2]; FIG. 5C, male mice): seemed to have an effect
time spent in the light (CGRP-induced light aversion) (wild-type CD1 mice [2]; [6]): failed to reverse the CGRP-induced decrease in time spent in the light
latency to fall from the rod (motor function) (wild-type CD1 mice [3]): seemed to increase motor function (trend only)
time to fall from the rod, average across 3 trials on treatment day (wild-type CD1 mice [3]): showed increases in time to fall that were not significant
